The target in one test is T1, FSHR (Homo sapiens, UniProt P23945).
T1 construct: expressed in transfected cells; host or cells: CHO (Cho-FSHR-LUC-1-1-43)
T1 sequence (P23945 18-695): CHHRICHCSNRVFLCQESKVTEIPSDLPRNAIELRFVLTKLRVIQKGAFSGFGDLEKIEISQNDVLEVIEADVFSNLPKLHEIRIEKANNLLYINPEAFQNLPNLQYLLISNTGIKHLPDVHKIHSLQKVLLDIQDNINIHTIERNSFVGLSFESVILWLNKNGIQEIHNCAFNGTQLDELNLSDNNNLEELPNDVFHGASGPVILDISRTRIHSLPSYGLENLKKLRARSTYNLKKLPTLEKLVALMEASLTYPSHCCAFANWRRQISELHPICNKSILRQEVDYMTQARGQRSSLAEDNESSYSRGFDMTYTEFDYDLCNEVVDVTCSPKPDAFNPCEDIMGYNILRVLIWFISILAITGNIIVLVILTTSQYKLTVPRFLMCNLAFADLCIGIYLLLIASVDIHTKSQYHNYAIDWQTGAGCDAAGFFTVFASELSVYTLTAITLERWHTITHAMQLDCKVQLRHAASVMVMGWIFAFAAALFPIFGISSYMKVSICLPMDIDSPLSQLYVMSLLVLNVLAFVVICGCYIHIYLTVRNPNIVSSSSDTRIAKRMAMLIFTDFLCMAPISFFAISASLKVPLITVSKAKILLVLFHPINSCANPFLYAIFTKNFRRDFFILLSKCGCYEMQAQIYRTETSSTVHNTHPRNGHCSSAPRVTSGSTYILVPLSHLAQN
The experiment in a line: EC50 of cyclic AMP production in CHO FSHR cells + EC20 FSH (Assay A). It counts as cell-based. As to conditions: CHO FSHR cells + EC20 FSH, cAMP HTRF; read-out: Assay A: EC50 of cyclic AMP production. The procedure, abridged:
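cAMP HTRF read-out (665 nm/620 nm ratio) after 1 h at 37° C of Cho-FSHR-LUC cells treated with serially diluted test compound plus EC20 FSH ([…]) and IBMX (final 200 μM). Responses given as percent of maximal FSH-standard effect.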
In general terms: TR-FRET usually uses a lanthanide donor and a delayed reading to cut background.

Test [1] deals with T2, follicle-stimulating hormone (FSH) receptor (Rattus norvegicus, UniProt P20395).
T2 construct: endogenous in cells; host or cells: primary rat granulosa cells
T2 sequence (P20395 18-692): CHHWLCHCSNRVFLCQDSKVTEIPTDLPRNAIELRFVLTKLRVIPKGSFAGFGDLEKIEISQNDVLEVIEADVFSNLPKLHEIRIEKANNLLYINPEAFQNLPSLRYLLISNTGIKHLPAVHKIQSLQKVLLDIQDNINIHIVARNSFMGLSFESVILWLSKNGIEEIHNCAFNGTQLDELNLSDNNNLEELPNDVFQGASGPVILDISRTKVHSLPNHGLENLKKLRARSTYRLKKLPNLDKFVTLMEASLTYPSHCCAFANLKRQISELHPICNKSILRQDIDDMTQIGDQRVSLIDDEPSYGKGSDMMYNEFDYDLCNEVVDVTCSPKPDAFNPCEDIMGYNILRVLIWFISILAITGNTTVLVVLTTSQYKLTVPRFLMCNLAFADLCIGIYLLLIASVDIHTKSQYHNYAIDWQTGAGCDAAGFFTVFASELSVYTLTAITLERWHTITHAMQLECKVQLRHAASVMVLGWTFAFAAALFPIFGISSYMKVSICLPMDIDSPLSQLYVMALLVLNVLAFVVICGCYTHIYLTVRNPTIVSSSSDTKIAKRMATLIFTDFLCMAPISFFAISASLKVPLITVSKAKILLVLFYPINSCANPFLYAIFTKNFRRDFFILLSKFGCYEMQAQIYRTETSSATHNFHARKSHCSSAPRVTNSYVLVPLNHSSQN
Kind of test: Rat granulosa EC50 FSH (Assay B). It counts as cell-based. As to conditions: for EC50: rat granulosa cells, read-out: Assay B: Rat granulosa EC50 FSH. The method, then: Rat Granulosa EC50 FSH (Assay B)
The assay was performed pursuant to the teaching of Yanofsky et al. (2006) Allosteric activation of the follicle-stimulating hormone (FSH) receptor by selective, nonpeptide agonists (JBC 281(19): 13226-13233, which is incorporated by reference in the disclosure of the invention).

Structures are written as SMILES.

By EC50 is commonly meant the concentration that produces a half-maximal response.

Take `COc1cc2c(cc1CC(C)C)-c1c(c(C(=O)N3CCCN(C(=O)C4CCCO4)CC3)nn1-c1ccsc1)CO2` (stereo not drawn) [Compound 21, (8-Isobutyl-7-methoxy-1-thiophen-3-yl-1,4-dihydro-chromeno[4,3-c]pyrazol-3-yl)-[4-(tetrahydro-furan-2-carbonyl)-[1,4]diazepan-1-yl]-methanone]: the EC50 at FSHR was 0.1 to 1 µM; in test [1], above 5 µM.

In the case of `COc1cc2c(cc1C1=CCOCC1)-c1c(c(C(=O)N3CCOCC3(C)C)nn1-c1ccsc1)CO2` [Compound 189, [8-(3,6-Dihydro-2H-pyran-4-yl)-7-methoxy-1-thiophen-3-yl-1,4-dihydro-chromeno[4,3-c]pyrazol-3-yl]-(3,3-dimethyl-morpholin-4-yl)-methanone], the EC50 (on FSHR; in test [1]) was below 0.1 µM throughout.

For the compound `COc1cc2c(cc1C1=CCCCO1)-c1c(c(C(=O)N(C)C(C)(C)C)nn1-c1ccsc1)CO2` [Compound 148, 8-(5,6-Dihydro-4H-pyran-2-yl)-7-methoxy-1-thiophen-3-yl-1,4-dihydro-chromeno[4,3-c]pyrazole-3-carboxylic acid tert-butyl-methyl-amide], the EC50 was below 0.1 µM at FSHR and 0.1 to 1 µM in test [1].

Turning to `COc1cc2c(cc1C=C(C)C)-c1c(c(C(=O)N3CCCC(C(=O)O)CC3)nn1-c1ccsc1)CO2` (stereo not drawn) [Compound 18, 1-[7-Methoxy-8-(2-methyl-propenyl)-1-thiophen-3-yl-1,4-dihydro-chromeno[4,3-c]pyrazole-3-carbonyl]-azepane-4-carboxylic acid], the EC50 at FSHR lay within 1 to 5 µM. The Emax at 30 µM in test [1] (@ 30 μM, read-out: Assay B: percental effect (response) relative to the maximum response of the FSH standard) was found to be 30%.

`COc1cc2c(cc1SCC(C)C)-c1c(c(C(=O)N3CCOCC3(C)C)nn1-c1ccsc1)CO2` [Compound 97, (3,3-Dimethyl-morpholin-4-yl)-(8-isobutylsulfanyl-7-methoxy-1-thiophen-3-yl-1,4-dihydro-chromeno[4,3-c]pyrazol-3-yl)-methanone]: the EC50 (at FSHR; in test [1]) was 0.1 to 1 µM throughout.

`COc1cc2c(cc1-c1ccn(C)n1)-c1c(c(C(=O)N3CCOCC34COC4)nn1-c1ccsc1)CO2` [Compound 154, (2,8-Dioxa-5-aza-spiro[3.5]non-5-yl)-[7-methoxy-8-(1-methyl-1H-pyrazol-3-yl)-1-thiophen-3-yl-1,4-dihydro-chromeno[4,3-c]pyrazol-3-yl]-methanone]: the EC50 is below 0.1 µM at FSHR and 1 to 5 µM in test [1].

For the origin of these results see patent publication US11365199B2, “Pyrazole compounds as modulators of FSHR and uses thereof” (Merck Patent GmbH, priority 2013, dated 2022).
